Laboratory results published in US20070254314A1, “Methods of treating autism and autism spectrum disorders” (priority 2004, published 2007).
Like-named read-outs stand apart in the source and are kept apart here.

Experiments:
[1] = Excerpt: (§1) The toxic metals were reported as μg/g creatinine in order to account for urine dilution variations.
as §1, §1, §1

[2] = tested on: subject suffering from autism or an autism spectrum disorder; assay: Clinical observation of symptoms (physician, parents, educators); assay type: in vivo, human
[3] = following three days of oral chelation with DMSA; cited from earlier work
[4] = tested on: rats of the JCL-SD strain; details: 0.3 to 2 mg/kg intravenously; male more susceptible; cited from earlier work
[5] = tested on: neuronal damage in tissue culture; details: cited from earlier work
[6] = cited from earlier work
[7] = tested on: susceptible mouse strain; details: weight- and age-adjusted 1990s US immunization schedule; cited from earlier work
[8] = tested on: chick embryo; details: single 50 μg of mercury dose; cited from earlier work
[9] = tested on: neurons; details: nanomolar (nM) to micromolar (μM) concentrations, within hours of exposure; cited from earlier work
[10] = Child X (autistic person), urine collected Nov. 5, 2000, during DMSA treatment, creatinine 43.4 mg/dL
[11] = Child X, urine collected Sep. 30, 2001, during DMSA treatment, creatinine 54 mg/dL
[12] = Child Y (autistic person), urine collected Jun. 29, 2002, during DMSA treatment, creatinine 6.9 mg/dL
[13] = Child Y, urine collected Dec. 24, 2002, during DMSA treatment, creatinine 8.6 mg/dL

Compound: O=C(O)[C@@H](S)[C@@H](S)C(=O)O [DMSA, meso-2,3-dimercaptosuccinic acid]
- Mercury in urine on DMSA treatment ([1]; Child X, DMSA Oct. 21, 2000 through Feb. 3, 2002): spilled toxic levels of mercury in their urine
- Mercury in urine on DMSA treatment ([1]; Child Y, DMSA Jun. 26, 2002 to May 2, 2003): spilled toxic levels of mercury in their urine
- Clinical improvement as a result of DMSA treatment ([2]; Child X): some improvement
- Improvement in autism on DMSA treatment ([2]; Child Y): did not show significant improvement
- Urinary mercury concentration, autistic children versus matched normal controls [3]: approximately 6 fold

Compound: [Cl][Hg][Cl] [mercuric chloride]
- Renal toxicity [4]: acute renal tubular necrosis was produced

Compound: C[C@]12CC[C@H]3[C@@H](CCC4=CC(=O)CC[C@@]43C)[C@@H]1CC[C@@H]2O [testosterone]
- Effect of concurrent exposure on mercury induced neuronal damage [5]: exacerbated

Compound: C[CH2][Hg][S]c1ccccc1C(=O)[O-].[Na+] [thimerosal]
- Passage of the blood-brain barrier ([6]; infant monkeys, doses comparable to the US dosing schedule): crosses the blood-brain barrier
- Half-life of inorganic mercury in the brain ([6]; infant monkeys): > 120 days
- Maximum mercury concentration observed in the brain ([6]; infant monkeys): approximately 50 parts-per-billion
- Overall half-life of mercury in the brain ([6]; infant monkeys): approximately 24 days
- Inorganic mercury in the brains ([6]; thimerosal-treated infant monkeys, average following the dosing schedule): 16 parts-per-billion
- Neurotoxic effects [7]: autistic symptoms in a susceptible mouse strain
- Fetal lethality and teratogenicity compared to controls [8]: significant fetal lethality and teratogenecity
- Effects on neurons [9]: inducing neuronal death, neurodegeneration, membrane damage, and DNA damage

Compound: Aluminum
- Toxic metals in urine, Results [1, 10]: 26 μg/g creatinine
- Toxic metals in urine, Results [1, 11]: 14 μg/g creatinine
- Toxic metals in urine, Results [1, 12]: <dl*
- Toxic metals in urine, Results [1, 13]: <dl*

Compound: Antimony
- Toxic metals in urine, Results [1, 10]: 0.4 μg/g creatinine
- Toxic metals in urine, Results [1, 11]: <dl*
- Toxic metals in urine, Results [1, 12]: <dl
- Toxic metals in urine, Results [1, 13]: <dl

Compound: Arsenic
- Toxic metals in urine, Results [1, 10]: 98 μg/g creatinine
- Toxic metals in urine, Results [1, 11]: 37 μg/g creatinine
- Toxic metals in urine, Results [1, 12]: 31 μg/g creatinine
- Toxic metals in urine, Results [1, 13]: 23 μg/g creatinine

Compound: Beryllium
- Toxic metals in urine, Results [1, 10]: <dl*
- Toxic metals in urine, Results [1, 11]: <dl
- Toxic metals in urine, Results [1, 12]: <dl
- Toxic metals in urine, Results [1, 13]: <dl

Compound: Bismuth
- Toxic metals in urine, Results [1, 10]: 0.8 μg/g creatinine
- Toxic metals in urine, Results [1, 11]: <dl
- Toxic metals in urine, Results [1, 12]: <dl
- Toxic metals in urine, Results [1, 13]: <dl

Compound: Cadmium
- Toxic metals in urine, Results [1, 10]: 1.4 μg/g creatinine
- Toxic metals in urine, Results [1, 11]: 0.5 μg/g creatinine
- Toxic metals in urine, Results [1, 12]: <dl
- Toxic metals in urine, Results [1, 13]: 1.6 μg/g creatinine

Compound: Lead
- Toxic metals in urine, Results [1, 10]: 12 μg/g creatinine
- Toxic metals in urine, Results [1, 11]: 8.6 μg/g creatinine
- Toxic metals in urine, Results [1, 12]: <dl
- Toxic metals in urine, Results [1, 13]: <dl

Compound: Platinum
- Toxic metals in urine, Results [1, 10]: 0.2 μg/g creatinine
- Toxic metals in urine, Results [1, 11]: <dl
- Toxic metals in urine, Results [1, 12]: <dl
- Toxic metals in urine, Results [1, 13]: <dl

Compound: Thallium
- Toxic metals in urine, Results [1, 10]: 0.2 μg/g creatinine
- Toxic metals in urine, Results [1, 11]: 0.2 μg/g creatinine
- Toxic metals in urine, Results [1, 12]: 0.9 μg/g creatinine
- Toxic metals in urine, Results [1, 13]: 0.6 μg/g creatinine

Compound: Tungsten
- Toxic metals in urine, Results [1, 10]: <dl
- Toxic metals in urine, Results [1, 11]: 0.3 μg/g creatinine
- Toxic metals in urine, Results [1, 12]: <dl
- Toxic metals in urine, Results [1, 13]: 1.6 μg/g creatinine

Compound: estrogen
- Effect of concurrent exposure on mercury induced neuronal damage [5]: ameliorated
